Laboratory results reported in ChEMBL document CHEMBL6071177, “Medium-Ring Keto Bislactams with Antischistosomal Activity” (J Med Chem, 2024).
Values after ≈ are worked out from the molar mass of the structure shown.

Columns and labels:
[1] = Intrinsic clearance in mouse liver microsomes
[2] = test system: Schistosoma mansoni; assay: Anti-schistosomal activity against newly transformed Schistosoma mansoni assessed as parasite viability at 10 uM measured after 3 days relative to control; type: functional; conditions: time 3 day
[3] = Solubility of compound in 0.01 M HCl at pH 2.0 by nephelometry; type: physicochemical
[4] = Solubility of compound in phosphate buffer at pH 6.5 by nephelometry; type: physicochemical
[5] = Intrinsic clearance in human liver microsomes
[6] = Cytotoxicity against rat L6 cells; type: toxicity, cell-based
[7] = Lipophilicity, logD of compound at pH 7.4 by HPLC analysis; type: physicochemical; conditions: buffer
[8] = test system: Schistosoma mansoni; assay: Anti-schistosomal activity against adult Schistosoma mansoni assessed as parasite viability at 10 uM measured after 3 days relative to control; type: functional; conditions: time 3 day

## O=C1CCN2C(=O)c3ccccc3C2C(=O)Nc2ccc(Cl)cc21 (configuration not stated)
[1]
  CLH: 413 µL/min/mg
[2]
  Activity: 38%
[3]
  solubility kinetic: 160 µM (≈ 54.5 µg/mL)
[4]
  solubility kinetic: > 320 µM
[5]
  CLH: 101 µL/min/mg
[6]
  IC50: 220 µM
[7]
  logD: 1.8
[8]
  Activity: 40%

## CN1C(=O)C2c3ccccc3C(=O)N2CCC(=O)c2ccccc21 (configuration not stated)
[1]
  CLH: 174 µL/min/mg
[2]
  Activity: 23%
[3]
  solubility kinetic: > 320 µM
[4]
  solubility kinetic: > 320 µM
[5]
  CLH: 71 µL/min/mg
[6]
  IC50: > 300 µM
[7]
  logD: 1.9
[8]
  Activity: 39%

## COC1CCN2C(=O)c3ccccc3C2C(=O)Nc2ccccc21 (configuration not stated)
[1]
  CLH: 90.5 µL/min/mg
[2]
  Activity: 25%
[3]
  solubility kinetic: 80 µM (≈ 25.8 µg/mL)
[4]
  solubility kinetic: 160 µM (≈ 51.6 µg/mL)
[5]
  CLH: 23.2 µL/min/mg
[6]
  IC50: > 310 µM
[7]
  logD: 1.4
[8]
  Activity: 31%

## O=C1CCN2C(=O)c3ccccc3C2C(=O)Nc2cc(F)cc(F)c21 (configuration not stated)
[1]
  CLH: 35.6 µL/min/mg
[2]
  Activity: 23%
[3]
  solubility kinetic: 160 µM (≈ 54.8 µg/mL)
[4]
  solubility kinetic: > 320 µM
[5]
  CLH: 21.5 µL/min/mg
[6]
  IC50: 200 µM
[7]
  logD: 1.7
[8]
  Activity: 40%

## O=C1CCN2C(=O)c3ccccc3C2C(=O)Nc2ccc(F)cc21 (configuration not stated)
[1]
  CLH: 258 µL/min/mg
[2]
  Activity: 30%
[3]
  solubility kinetic: 160 µM (≈ 51.9 µg/mL)
[4]
  solubility kinetic: > 320 µM
[5]
  CLH: 45.4 µL/min/mg
[6]
  IC50: > 310 µM
[7]
  logD: 1.4
[8]
  Activity: 40%

## O=C1CCN2C(=O)CCC2C(=O)Nc2ccccc21 (configuration not stated)
[1]
  CLH: 35 µL/min/mg
[2]
  Activity: 13%
[3]
  solubility kinetic: 160 µM (≈ 41.3 µg/mL)
[4]
  solubility kinetic: > 320 µM
[5]
  CLH: 17 µL/min/mg
[6]
  IC50: > 390 µM
[7]
  logD: < 0
[8]
  Activity: 31%

## COC(=O)[C@@H]1CC(=O)c2ccccc2NC(=O)C2c3ccccc3C(=O)N21 (some centres not stated)
[1]
  CLH: 102 µL/min/mg
[2]
  Activity: 50%
[3]
  solubility kinetic: 80 µM (≈ 29.1 µg/mL)
[4]
  solubility kinetic: 160 µM (≈ 58.3 µg/mL)
[5]
  CLH: 55.5 µL/min/mg
[6]
  IC50: > 270 µM
[7]
  logD: 1.7
[8]
  Activity: 27%

## O=C1Nc2ccccc2CCCN2C(=O)c3ccccc3C12 (configuration not stated)
[1]
  CLH: 100 µL/min/mg
[2]
  Activity: 48%
[3]
  solubility kinetic: 160 µM (≈ 46.8 µg/mL)
[4]
  solubility kinetic: > 320 µM
[5]
  CLH: 35.7 µL/min/mg
[6]
  IC50: > 340 µM
[7]
  logD: 1.5
[8]
  Activity: 31%

## CO/N=C1/CCN2C(=O)c3ccccc3C2C(=O)Nc2ccccc21 (configuration not stated)
[1]
  CLH: 80.3 µL/min/mg
[2]
  Activity: 33%
[3]
  solubility kinetic: > 320 µM
[4]
  solubility kinetic: > 320 µM
[5]
  CLH: 13.2 µL/min/mg
[6]
  IC50: > 300 µM
[7]
  logD: 1.6
[8]
  Activity: 41%

## O=C1C[C@@H](CO)N2C(=O)c3ccccc3C2C(=O)Nc2ccccc21 (some centres not stated)
[1]
  CLH: 61.6 µL/min/mg
[2]
  Activity: 38%
[3]
  solubility kinetic: 80 µM (≈ 26.9 µg/mL)
[4]
  solubility kinetic: 80 µM (≈ 26.9 µg/mL)
[5]
  CLH: 19.6 µL/min/mg
[6]
  IC50: 230 µM
[7]
  logD: 0.8
[8]
  Activity: 47%

## O=c1c2c([nH]c3ccccc13)C1c3ccccc3S(=O)(=O)N1C2 (configuration not stated)
[1]
  CLH: 45.8 µL/min/mg
[2]
  Activity: 22%
[3]
  solubility kinetic: 40 µM (≈ 13 µg/mL)
[4]
  solubility kinetic: 40 µM (≈ 13 µg/mL)
[5]
  CLH: 11 µL/min/mg
[6]
  IC50: 200 µM
[7]
  logD: 2
[8]
  Activity: 47%

## O=C1CCN2C(C(=O)Nc3ccccc31)c1ccccc1S2(=O)=O (configuration not stated)
[2]
  Activity: 27%
[3]
  solubility kinetic: 80 µM (≈ 27.4 µg/mL)
[4]
  solubility kinetic: 160 µM (≈ 54.8 µg/mL)
[6]
  IC50: 130 µM
[7]
  logD: 1.7
[8]
  Activity: 44%

## CC12C(=O)Nc3ccccc3C(=O)CCN1C(=O)c1ccccc12 (configuration not stated)
[1]
  CLH: 136 µL/min/mg
[2]
  Activity: 25%
[3]
  solubility kinetic: 160 µM (≈ 51.3 µg/mL)
[4]
  solubility kinetic: 160 µM (≈ 51.3 µg/mL)
[5]
  CLH: 34 µL/min/mg
[6]
  IC50: > 300 µM
[7]
  logD: 1.7
[8]
  Activity: 35%

## O=C1CCN2C(=O)c3cc(F)c(F)cc3C2C(=O)Nc2ccccc21 (configuration not stated)
[2]
  Activity: 37%
[3]
  solubility kinetic: > 320 µM
[4]
  solubility kinetic: 160 µM (≈ 54.8 µg/mL)
[6]
  IC50: > 290 µM
[7]
  logD: 1.7
[8]
  Activity: 34%

## COc1cc2c(cc1OC)C1C(=O)Nc3ccccc3C(=O)CCN1C2=O (configuration not stated)
[1]
  CLH: 37.4 µL/min/mg
[2]
  Activity: 23%
[3]
  solubility kinetic: 160 µM (≈ 58.6 µg/mL)
[4]
  solubility kinetic: > 320 µM
[5]
  CLH: 20.7 µL/min/mg
[6]
  IC50: 150 µM
[7]
  logD: 1.2
[8]
  Activity: 38%

## O=C1Nc2ccccc2C2(O)CCN3C12c1ccccc1S3(=O)=O (configuration not stated)
[1]
  CLH: 11.6 µL/min/mg
[2]
  Activity: 47%
[3]
  solubility kinetic: 80 µM (≈ 27.4 µg/mL)
[4]
  solubility kinetic: > 160 µM
[5]
  CLH: 4.6 µL/min/mg
[6]
  IC50: > 290 µM
[7]
  logD: 1
[8]
  Activity: 61%

## CCOC(=O)c1ccc2c(c1)C(=O)CCN1C(=O)c3ccccc3C1C(=O)N2 (configuration not stated)
[1]
  CLH: 118 µL/min/mg
[2]
  Activity: 21%
[3]
  solubility kinetic: 40 µM (≈ 15.1 µg/mL)
[4]
  solubility kinetic: 40 µM (≈ 15.1 µg/mL)
[5]
  CLH: 55.6 µL/min/mg
[6]
  IC50: > 260 µM
[7]
  logD: 2
[8]
  Activity: 38%

## O=C1CCN2C(=O)c3c(F)c(F)c(F)c(F)c3C2C(=O)Nc2ccccc21 (configuration not stated)
[2]
  Activity: 36%
[3]
  solubility kinetic: 160 µM (≈ 60.5 µg/mL)
[4]
  solubility kinetic: 160 µM (≈ 60.5 µg/mL)
[6]
  IC50: 98 µM
[7]
  logD: 2
[8]
  Activity: 30%

## O=C1CCN2C(=O)[C@H]3CCCC[C@H]3C2C(=O)Nc2ccccc21 (some centres not stated)
[1]
  CLH: 43.7 µL/min/mg
[2]
  Activity: 50%
[3]
  solubility kinetic: > 320 µM
[4]
  solubility kinetic: > 320 µM
[5]
  CLH: 22.3 µL/min/mg
[6]
  IC50: 220 µM
[7]
  logD: 1.4
[8]
  Activity: 25%

## O=C1CCN2C(=O)c3cc(Cl)c(Cl)cc3C2C(=O)Nc2ccccc21 (configuration not stated)
[2]
  Activity: 31%
[3]
  solubility kinetic: 80 µM (≈ 30 µg/mL)
[4]
  solubility kinetic: 160 µM (≈ 60 µg/mL)
[6]
  IC50: 190 µM
[7]
  logD: 2.4
[8]
  Activity: 40%

## O=C1c2ccccc2C23C(=O)Nc4ccccc4C2(O)CCN13 (configuration not stated)
[1]
  CLH: < 7 µL/min/mg
[2]
  Activity: 18%
[3]
  solubility kinetic: 40 µM (≈ 12.3 µg/mL)
[4]
  solubility kinetic: 40 µM (≈ 12.3 µg/mL)
[5]
  CLH: < 7 µL/min/mg
[6]
  IC50: > 330 µM
[7]
  logD: 0.9
[8]
  Activity: 48%

## COc1ccc2c(c1)C(=O)CCN1C(=O)c3ccccc3C1C(=O)N2 (configuration not stated)
[1]
  CLH: 280 µL/min/mg
[2]
  Activity: 50%
[3]
  solubility kinetic: > 320 µM
[4]
  solubility kinetic: > 320 µM
[5]
  CLH: 57.1 µL/min/mg
[6]
  IC50: 130 µM
[7]
  logD: 1.5
[8]
  Activity: 42%

## O=C1CCn2c(nc3ccccc3c2=O)C(=O)Nc2ccccc21
[1]
  CLH: 38.2 µL/min/mg
[2]
  Activity: 31%
[3]
  solubility kinetic: > 320 µM
[4]
  solubility kinetic: > 320 µM
[5]
  CLH: 21.7 µL/min/mg
[6]
  IC50: 52 µM
[7]
  logD: 1.8
[8]
  Activity: 20%

## O=C1CCN2C(=O)c3ccccc3C2C(=O)Nc2cc(F)ccc21 (configuration not stated)
[2]
  Activity: 15%
[3]
  solubility kinetic: 160 µM (≈ 51.9 µg/mL)
[4]
  solubility kinetic: 160 µM (≈ 51.9 µg/mL)
[6]
  IC50: > 300 µM
[7]
  logD: 1.4
[8]
  Activity: 39%

## O=C(C1CCCCC1)N1CC(=O)N2CCc3ccccc3C2C1 (configuration not stated) [PRAZIQUANTEL]
[2]
  Activity: 78%
[3]
  solubility kinetic: > 320 µM
[4]
  solubility kinetic: > 320 µM
[7]
  logD: 3
[8]
  Activity: 100%
